Series [1] is described as follows: % SPP100 in faeces following single oral dose of 300 mg [14C]SPP100 studied in healthy men. It is filed as ADME, organism-based, Feces. As to conditions: human, in vivo, at 300 mg.
A short description of series [2]: Terminal elimination half-life of SPP100 following single oral dose of SPP100 300 mg capsule studied in healthy human. It is filed as ADME, organism-based. As to conditions: plasma.
Series [3] in a line: Excretion (0-72h) of aliskiren in faeces following oral administration of [14C] aliskiren hemifumarate at 3 mg.Kg-1 level in marmoset. It is filed as ADME, organism-based, Callithrix jacchus, Feces. As to conditions: in vivo.
Series [4] concerns the target T1, CYP2A6 (Homo sapiens, UniProt P11509).
T1 sequence (P11509 whole entry): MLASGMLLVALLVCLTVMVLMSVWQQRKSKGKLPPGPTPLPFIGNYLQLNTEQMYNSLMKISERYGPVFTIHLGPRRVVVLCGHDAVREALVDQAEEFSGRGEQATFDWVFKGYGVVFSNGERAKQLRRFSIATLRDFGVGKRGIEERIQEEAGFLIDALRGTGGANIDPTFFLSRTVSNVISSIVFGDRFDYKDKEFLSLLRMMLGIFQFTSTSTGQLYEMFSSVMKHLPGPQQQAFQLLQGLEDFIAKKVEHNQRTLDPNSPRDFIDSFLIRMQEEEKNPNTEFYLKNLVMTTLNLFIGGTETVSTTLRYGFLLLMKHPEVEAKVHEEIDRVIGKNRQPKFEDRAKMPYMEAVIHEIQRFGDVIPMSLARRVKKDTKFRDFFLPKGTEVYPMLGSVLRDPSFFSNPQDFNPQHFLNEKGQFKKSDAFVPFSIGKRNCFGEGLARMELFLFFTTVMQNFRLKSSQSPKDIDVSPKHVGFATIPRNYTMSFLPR
Kind of series: Inhibitory activity of 20 uM SPP100 on 37 Pmoles of cDNA-derived CYP2A6 enzyme in microsome prepared from human lymphoblastoid cell line. It counts as ADME, microsomes. On the set-up: conc 20 uM, interact cpd conc 3 uM. As to conditions: probe coumarine.

Series [5] deals with CYP2C19 (Homo sapiens, UniProt P33261). Briefly: Inhibitory activity of 20 uM SPP100 on 1131 Pmoles of cDNA-derived CYP2C19 enzyme in microsome prepared from human lymphoblastoid cell line. It counts as ADME, microsomes. On the set-up: conc 20 uM, interact cpd conc 50 uM. To be noted: probe (S)-mephenytoin.
The nature of series [6]: Mean excretion of radioactivity (72-96h) in urine and faeces following single oral dose of 100 mg.Kg-1 [14C] aliskiren hemifumarate in rat. As to conditions: in vivo. It is filed as ADME, organism-based, Albino HAN:WIST, Urine/Feces.
Series [7] in a line: Excretion of radioactivity (0-24h) in urine following single oral dose of 500 mg.Kg-1 [14C] aliskiren hemifumarate in mouse. It is filed as ADME, organism-based, TgRasH2. As to conditions: in vivo.
A short description of series [8]: AUC/dose (0-96h) of total radioactivity following oral administration of [14C] aliskiren hemifumarate at 100 mg.Kg-1 level in rat. It counts as ADME, organism-based, Albino HAN:WIST, Plasma. As to conditions: in vivo.
Series [9] is described as follows: Mean excretion of radioactivity (0-72h) in urine and faeces following single oral dose of 500 mg.Kg-1 [14C] aliskiren hemifumarate in mouse. It is filed as ADME, organism-based, TgRasH2, Urine/Feces. To be noted: in vivo.
Series [10] is described as follows: Apparent Vmax value of metabolism of [14C] aliskiren hemifumarate studied in human liver microsome. It is filed as ADME. As to conditions: microsomes. (In general: Microsomes from liver hold many membrane-bound enzymes, among them those of drug oxidation.)
Series [11] in a line: Excretion of radioactivity (0-72h) in urine following single intravenous dose of 10 mg.Kg-1 [14C] aliskiren hemifumarate in mouse. It is filed as ADME, organism-based, TgRasH2. To be noted: in vivo.
The nature of series [12]: % of radioactivity (48h) recovered in faeces of receiver rat following duodenal infusion of radioactivity through bile from donor rat treated with single intravenous administration of 10 mg.Kg-1 [14C] aliskiren hemifumarate. It is filed as ADME, organism-based, HAN:WIST(SPF), Feces. To be noted: in vivo.
Series [13] can be described thus: Excretion of radioactivity (24-48h) in faeces following single oral dose of 500 mg.Kg-1 [14C] aliskiren hemifumarate in mouse. It counts as ADME, organism-based, TgRasH2, Feces. As to conditions: in vivo.
In series [14] the target is Cytochrome P450 3A7 (Homo sapiens, UniProt P24462). Kind of series: Metabolic clearance (ul.min.nmol-1 CYP) of aliskiren hemifumarate for CYP3A7 was determined in human liver microsome incubated with [14C]SPP100 hemifumarate. It counts as ADME. To be noted: microsomes.
The nature of series [15]: Plasma concentration of [14C] aliskiren hemifumarate in first 24h following single oral dose of [14C] aliskiren hemifumarate at 500 mg.Kg-1 level in mouse. It counts as ADME, organism-based, TgRasH2. As to conditions: in vivo.
Series [16] is described as follows: Excretion of radioactivity (24-48h) in faeces following single oral dose of 100 mg.Kg-1 [14C] aliskiren hemifumarate in rat. To be noted: in vivo. It counts as ADME, organism-based, Albino HAN:WIST, Feces.
A short description of series [17]: Cmax (0-168h) of total radioactivity following single oral administration of [14C] aliskiren hemifumarate at 3 mg.Kg-1 level in marmoset. It counts as ADME, organism-based, Callithrix jacchus, Plasma. To be noted: in vivo.
Series [18] can be described thus: Excretion of radioactivity (0-96h) in urine following single intravenous dose of 10 mg.Kg-1 [14C] aliskiren hemifumarate in rat. As to conditions: in vivo. It is filed as ADME, organism-based, Albino HAN:WIST.
Series [19] is described as follows: Concentration of radioactivity in the brown fat following repeated oral administration of [14C] aliskiren hemifumarate at 100 mg.Kg-1 level studied at 2h after 3rd dose in rat. It is filed as ADME, organism-based, Albino HAN:WIST, Brown adipose tissue. To be noted: in vivo.
For series [20], the target named is Cytochrome P450 2D6 (Homo sapiens, UniProt P10635). Briefly: Activity of human recombinant CYP2D6 assessed as enzyme contribution (% total relative CL) towards [14C]SPP100 hemifumarate metabolism in human liver microsome. It is filed as ADME. To be noted: microsomes.
The nature of series [21]: Cmax normalised (0-168h) of total radioactivity following single intravenous administration of [14C] aliskiren hemifumarate at 1 mg.Kg-1 level in marmoset. It counts as ADME, organism-based, Callithrix jacchus, Plasma. As to conditions: in vivo.
Series [22] is described as follows: Excretion (24h) of radioactivity in urine following intravenous administration of [14C] aliskiren hemifumarate at 10 mg.Kg-1 level in rat. It is filed as ADME, organism-based, Lister-Hooded. To be noted: in vivo.
The nature of series [23]: Effect of 2 week oral dosing of aliskiren hemifumarate at 50 mg.Kg-1 level on hematological parameter values in female Callithrix jacchus. It counts as toxicity, organism-based, Plasma. To be noted: marmoset, in vivo, 336 h.
Series [24] in a line: Elimination half-life of aliskiren hemifumarate following repeated oral administration of [14C] aliskiren hemifumarate at 100 mg.Kg-1 level studied in rat. It counts as ADME, organism-based, Albino HAN:WIST. As to conditions: in vivo.
The nature of series [25]: AUC(0-24h) of aliskiren hemifumarate following 2 week oral dosing of aliskiren hemifumarate at 50 mg.Kg-1 level studied on day 1 in male Callithrix jacchus. It counts as ADME, organism-based. To be noted: marmoset, plasma.
Series [26] in a line: Effect of 4 week oral dietary dosing of aliskiren hemifumarate at 1500 mg.Kg-1 level on density of uterine gland in female mouse. It is filed as toxicity, organism-based, CB6F1-TGrasH2, Endometrial gland. To be noted: in vivo, 672 h.
Series [27] is described as follows: Cmax of aliskiren hemifumarate following 8 day once-daily dosing of SPP100B oral solution at 640 mg level studied on day 8 in men. As to conditions: male, human, plasma. It is filed as ADME, organism-based.
Series [28] in a line: Cmax (0-96h) of unlabeled aliskiren hemifumarate following intravenous administration of aliskiren hemifumarate at 10 mg.Kg-1 level in rat. It counts as ADME, organism-based. To be noted: Albino HAN:WIST, plasma.
The nature of series [29]: Cmax of aliskiren hemifumarate following 4 week oral dietary dosing of aliskiren hemifumarate at 1000 mg.Kg-1 level in female mouse. As to conditions: CB6F1-TGrasH2, mouse, in vivo. It is filed as ADME, organism-based.
Series [30] in a line: Cmax of aliskiren hemifumarate following single dosing of SPP100B oral solution at 640 mg level studied on day 1 in men. It counts as ADME, organism-based. As to conditions: male, human, plasma.
The nature of series [31]: Effect of 2 week oral dosing of aliskiren hemifumarate at 100 mg.Kg-1 level on blood urea nitrogen level in female Callithrix jacchus. It counts as toxicity, organism-based, Plasma. To be noted: marmoset, 336 h.
Series [32] in a line: Cmax of aliskiren hemifumarate following repeated oral administration of [14C] aliskiren hemifumarate at 100 mg.Kg-1 level studied after 2h of dosing on day 10 in rat. It is filed as ADME, organism-based, Albino HAN:WIST. As to conditions: in vivo, read-out: Cmax(10).
Series [33] can be described thus: AUC (0-24h) of aliskiren hemifumarate following 4 week oral dietary dosing of aliskiren hemifumarate at 2000 mg.Kg-1 level in female mouse. It counts as ADME, organism-based. To be noted: CB6F1-TGrasH2, mouse, plasma.

This note sets out measurements from ChEMBL document CHEMBL3508693 (2016).

Chain of CYP2C19 (P33261 whole entry): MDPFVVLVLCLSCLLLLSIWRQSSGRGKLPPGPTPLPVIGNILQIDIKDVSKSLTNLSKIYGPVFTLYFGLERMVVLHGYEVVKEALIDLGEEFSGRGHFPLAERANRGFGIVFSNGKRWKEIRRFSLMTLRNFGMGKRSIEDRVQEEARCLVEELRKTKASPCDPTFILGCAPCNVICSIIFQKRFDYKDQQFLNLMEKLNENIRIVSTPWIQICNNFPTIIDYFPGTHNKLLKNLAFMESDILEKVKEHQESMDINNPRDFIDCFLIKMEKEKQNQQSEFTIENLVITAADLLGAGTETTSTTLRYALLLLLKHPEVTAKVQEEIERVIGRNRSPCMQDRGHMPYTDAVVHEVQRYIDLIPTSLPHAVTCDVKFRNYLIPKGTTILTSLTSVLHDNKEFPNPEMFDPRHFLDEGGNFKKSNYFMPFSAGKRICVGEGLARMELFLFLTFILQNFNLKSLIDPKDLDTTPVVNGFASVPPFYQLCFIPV
Chain of Cytochrome P450 2D6 (P10635 whole entry): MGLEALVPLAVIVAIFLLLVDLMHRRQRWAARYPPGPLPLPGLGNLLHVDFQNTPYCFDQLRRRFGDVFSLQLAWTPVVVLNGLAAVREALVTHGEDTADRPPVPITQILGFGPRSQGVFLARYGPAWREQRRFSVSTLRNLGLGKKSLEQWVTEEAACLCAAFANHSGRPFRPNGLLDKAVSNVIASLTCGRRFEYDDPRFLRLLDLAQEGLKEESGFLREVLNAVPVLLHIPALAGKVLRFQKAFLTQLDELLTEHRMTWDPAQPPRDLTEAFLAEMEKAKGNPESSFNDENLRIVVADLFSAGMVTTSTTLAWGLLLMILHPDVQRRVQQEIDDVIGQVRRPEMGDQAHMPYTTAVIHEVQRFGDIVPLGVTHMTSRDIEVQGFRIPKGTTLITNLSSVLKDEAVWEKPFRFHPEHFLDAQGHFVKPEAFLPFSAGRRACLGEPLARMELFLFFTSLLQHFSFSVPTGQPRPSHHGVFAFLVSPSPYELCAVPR
Chain of Cytochrome P450 3A7 (P24462 whole entry): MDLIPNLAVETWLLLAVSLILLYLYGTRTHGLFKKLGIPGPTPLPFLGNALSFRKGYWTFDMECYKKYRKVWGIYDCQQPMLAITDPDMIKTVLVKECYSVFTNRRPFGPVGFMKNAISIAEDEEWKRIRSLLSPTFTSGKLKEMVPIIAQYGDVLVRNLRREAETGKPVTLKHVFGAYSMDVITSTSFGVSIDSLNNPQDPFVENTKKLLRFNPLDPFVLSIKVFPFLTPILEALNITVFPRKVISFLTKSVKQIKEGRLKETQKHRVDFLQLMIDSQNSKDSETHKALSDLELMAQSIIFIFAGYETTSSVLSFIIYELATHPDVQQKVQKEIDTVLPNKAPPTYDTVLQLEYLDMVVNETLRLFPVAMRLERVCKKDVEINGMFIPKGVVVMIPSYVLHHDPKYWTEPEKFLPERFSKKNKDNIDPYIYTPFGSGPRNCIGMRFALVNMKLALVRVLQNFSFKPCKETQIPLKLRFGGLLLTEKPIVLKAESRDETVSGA

Broadly, the half-life is the time in which the quantity being followed falls by half. For orientation: inhibition means the percentage by which the read-out fell short of the control. Low values mean little suppression, high ones strong suppression. `COCCCOc1cc(C[C@@H](C[C@H](N)[C@@H](O)C[C@H](C(=O)NCC(C)(C)C(N)=O)C(C)C)C(C)C)ccc1OC`: the values for the Compound recovery in series [1] and in [3] were 77.5% and 78%, respectively. The half-life in series [2] is 37 h. Further, the results for the inhibition at 20 µM in series [4] and in series [5] were 2.6% and 5.1%, respectively.
The Cmax is the highest concentration seen after dosing. Consider `COCCCOc1cc(C[C@@H](C[C@H](N)[C@@H](O)C[C@H](C(=O)NCC([14CH3])([14CH3])C(N)=O)C(C)C)C(C)C)ccc1OC.O=C(O)/C=C/C(=O)O`, for which the Radiolabel recovery in series [6] is on record as 2.54%; in series [7] it was 0.47%; in [9], 89.8%; in [11], 87.94%; in series [12], 26.6%; in [13], 1.82%. The Radiolabel recovery in series [16] is listed as 0.68%; in [18], 94.4%; in series [19], “OUTCOME = Detected”; in [22], 10%. Further, the AUC normalised in series [8] was 0.054 (umol.h/L)/(mg/kg); in series [8] (iv, 10 mg/kg), 0.81 (umol.h/L)/(mg/kg). The Vmax in series [10] was found to be 1807.6 pmol·min/mg. The CL in series [14] was 3.5 µL·min/nmol. In addition, the Compound recovery in [15] was 56%. The Cmax in [17] turned out to be 359 nM. For the same compound, the Activity in series [20] was determined as 0.38%. The Cmax normalised in series [21] is 11.42 (umol/L)/(mg/kg).
For orientation: AUC(0-t) means the area under the concentration-time curve up to a stated or last time point. `COCCCOc1cc(C[C@@H](C[C@H](N)[C@@H](O)C[C@H](C(=O)NCC(C)(C)C(N)=O)C(C)C)C(C)C)ccc1OC.COCCCOc1cc(C[C@@H](C[C@H](N)[C@@H](O)C[C@H](C(=O)NCC(C)(C)C(N)=O)C(C)C)C(C)C)ccc1OC.O=C(O)/C=C/C(=O)O` [ALISKIREN FUMARATE]: the Change in hematology entry in series [23] was “OUTCOME = Hematological parameter values did not differ from control values. No animals died during the study”. This compound also returned a t1/2 in [24] of 39.5 h. The AUC(0-t) at 24 h in series [25] was 58100 ng·h/mL; in series [33], 11800 ng·h/mL. For the same compound, the “Change in density of uterine gland” value in [26] is reported as “OUTCOME = Decreased. No animals died during the study”. Besides, the Cmax in series [27] is 335 ng/mL; in series [28], 29200 nM; in [29] it was 167 ng/mL; in series [30] it was 146 ng/mL; in series [32] it was 357 nM. Also, the BUN_CHANGE_BY in [31] came out at 401%.
